According to PubChem BioAssay (NCI):
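Method: 48-hour compound exposure of cells in 96-well plates, five concentrations, linear interpolation of endpoints. Here, GI50 denotes the concentration required for 50% inhibition of growth. At the TGI there is no net growth.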

How the values were obtained:
Test in all cases: DTP human tumour cell line panel, 48 h; in the data active means GI50 below about 0.43 µM; inactive means the rest
LOX IMVI melanoma = system: LOX IMVI melanoma
MALME-3M melanoma = system: MALME-3M melanoma
HCC-2998 colon = system: HCC-2998 colon
COLO 205 colon = system: COLO 205 colon
OVCAR-4 ovarian = system: OVCAR-4 ovarian
SF-295 CNS = system: SF-295 CNS
U251 CNS = system: U251 CNS
CAKI-1 renal = system: CAKI-1 renal
HOP-62 NSCLC = system: HOP-62 NSCLC
BT-549 breast = system: BT-549 breast

COC(=O)c1ccc(CN2C(=O)C(Cl)=C(Nc3cccc(Cl)c3C)C2=O)cc1
9.82 µM: TGI (MALME-3M melanoma)
> 100 µM: TGI (LOX IMVI melanoma) | TGI (COLO 205 colon) | TGI (OVCAR-4 ovarian) | TGI (SF-295 CNS) | TGI (U251 CNS) | TGI (HOP-62 NSCLC)
inactive: GI50 (LOX IMVI melanoma) 32.3 µM | GI50 (MALME-3M melanoma) 2.03 µM | GI50 (HCC-2998 colon) 32.5 µM | GI50 (COLO 205 colon) 19.7 µM | GI50 (OVCAR-4 ovarian) 26.5 µM | GI50 (SF-295 CNS) 35.4 µM | GI50 (U251 CNS) 32.4 µM | GI50 (CAKI-1 renal) 26.5 µM | GI50 (HOP-62 NSCLC) 14.2 µM
71.6 µM: TGI (CAKI-1 renal)
67.5 µM: TGI (HCC-2998 colon)

CN(C)C(=N/O)/C(=N\O)N(C)C
> 100 µM: TGI (LOX IMVI melanoma) | TGI (MALME-3M melanoma) | TGI (HCC-2998 colon) | TGI (OVCAR-4 ovarian) | TGI (SF-295 CNS) | TGI (U251 CNS) | TGI (CAKI-1 renal) | TGI (HOP-62 NSCLC)

O=C(/C=C/c1ccccc1F)c1ccc(Cl)c(Cl)c1
23.6 µM: TGI (LOX IMVI melanoma)
> 71 µM: TGI (HCC-2998 colon)
> 80.2 µM: TGI (CAKI-1 renal)
> 100 µM: TGI (MALME-3M melanoma) | TGI (COLO 205 colon) | TGI (OVCAR-4 ovarian) | TGI (SF-295 CNS) | TGI (HOP-62 NSCLC)

O=C1CC(c2cccc(F)c2)Nc2cc3c(cc21)OCO3 (stereo not drawn)
inactive: GI50 (OVCAR-4 ovarian) > 100 µM | GI50 (HOP-62 NSCLC) 2.65 µM
> 100 µM: TGI (LOX IMVI melanoma) | TGI (OVCAR-4 ovarian) | TGI (SF-295 CNS) | TGI (U251 CNS) | TGI (CAKI-1 renal) | TGI (HOP-62 NSCLC)
active: GI50 (LOX IMVI melanoma) < 0.01 µM | GI50 (HCC-2998 colon) < 0.01 µM | GI50 (COLO 205 colon) < 0.01 µM | GI50 (SF-295 CNS) < 0.01 µM | GI50 (U251 CNS) < 0.01 µM | GI50 (CAKI-1 renal) < 0.01 µM
< 0.01 µM: TGI (HCC-2998 colon)

CNC(=O)c1c(NC(=O)c2ccc(C(C)(C)C)cc2)sc2c(CN(C)C)c(O)ccc12
2.38 µM: TGI (LOX IMVI melanoma)
3.51 µM: TGI (MALME-3M melanoma)
inactive: GI50 (LOX IMVI melanoma) 1.13 µM | GI50 (MALME-3M melanoma) 1.73 µM | GI50 (HCC-2998 colon) 1.34 µM | GI50 (COLO 205 colon) 2.1 µM | GI50 (SF-295 CNS) 1.86 µM | GI50 (CAKI-1 renal) 1.68 µM
3.25 µM: TGI (CAKI-1 renal)
2.94 µM: TGI (HCC-2998 colon)
3.56 µM: TGI (SF-295 CNS)
4.3 µM: TGI (COLO 205 colon)

CC(=O)c1c2c(cc3c1CC1(C3)Cc3cc4c(c(C(C)=O)c3C1)CCC4)CCC2
> 100 µM: TGI (LOX IMVI melanoma) | TGI (MALME-3M melanoma) | TGI (HCC-2998 colon) | TGI (COLO 205 colon) | TGI (OVCAR-4 ovarian) | TGI (SF-295 CNS) | TGI (U251 CNS) | TGI (CAKI-1 renal) | TGI (HOP-62 NSCLC)

N#C/C(=C/c1ccc2c(c1)OCO2)C(=O)c1ccccc1
> 100 µM: TGI (MALME-3M melanoma) | TGI (HCC-2998 colon) | TGI (COLO 205 colon) | TGI (OVCAR-4 ovarian) | TGI (SF-295 CNS) | TGI (U251 CNS) | TGI (CAKI-1 renal) | TGI (HOP-62 NSCLC)

N/C(=N\N=C\c1ccc(C(F)(F)F)cc1)NO
87.3 µM: TGI (U251 CNS)
38.1 µM: TGI (CAKI-1 renal)
55 µM: TGI (HOP-62 NSCLC)
38.7 µM: TGI (COLO 205 colon)
> 100 µM: TGI (MALME-3M melanoma) | TGI (OVCAR-4 ovarian) | TGI (SF-295 CNS)

CCc1cccc(C)c1NC(=O)C(=O)CC(=O)c1ccc(Cl)s1
> 100 µM: TGI (LOX IMVI melanoma) | TGI (MALME-3M melanoma) | TGI (HCC-2998 colon) | TGI (OVCAR-4 ovarian) | TGI (SF-295 CNS) | TGI (U251 CNS) | TGI (CAKI-1 renal) | TGI (HOP-62 NSCLC)

CCCCCCCCCCCCCC[N+](C)(C)CCCCCCCCCCCCCC
5.47 µM: TGI (BT-549 breast)
37.7 µM: TGI (SF-295 CNS)
inactive: GI50 (BT-549 breast) 2.38 µM | GI50 (HCC-2998 colon) 2.26 µM | GI50 (SF-295 CNS) 7.72 µM | GI50 (CAKI-1 renal) 3.56 µM
24.3 µM: TGI (CAKI-1 renal)
5.28 µM: TGI (HCC-2998 colon)

COC(=O)N/N=C(\C)c1c(O)cc(C)oc1=O
> 100 µM: TGI (MALME-3M melanoma) | TGI (HCC-2998 colon) | TGI (OVCAR-4 ovarian) | TGI (SF-295 CNS) | TGI (U251 CNS) | TGI (HOP-62 NSCLC)
44.5 µM: TGI (LOX IMVI melanoma)
